≈ marks a conversion by molar mass, not a printed value. Calls of active or inactive are those of the source. The rule behind the calls is not given here.
Assays:
Escherichia coli [1] = assay: Antibacterial activity against ciprofloxacin-resistant Escherichia coli JW5503 harboring GyrA Ser83Leu mutant after 16 to 18 hrs by broth microdilution method; assay type: functional
Bacillus cereus = assay: Antibacterial activity against Bacillus cereus after 16 to 18 hrs by broth microdilution method; assay type: functional
Escherichia coli [2] = assay: Antibacterial activity against Escherichia coli HB101 after 16 to 18 hrs by broth microdilution method; assay type: functional
Shigella flexneri = assay: Antibacterial activity against Shigella flexneri after 16 to 18 hrs by broth microdilution method; assay type: functional
DNA gyrase = DNA gyrase (Escherichia coli, UniProt P0AES4+P0AES6); assay: Inhibition of Escherichia coli DNA gyrase assessed as inhibition of pUC19 supercoiling after 30 mins by agarose gel electrophoresis; assay type: protein-complex assay
Escherichia coli [3] = assay: Ratio of MIC for gyramide-resistant Escherichia coli JW5503 harboring GyrA Ser97Pro mutant to MIC for Escherichia coli JW5503; assay type: functional
Escherichia coli [4] = assay: Antibacterial activity against Escherichia coli HB101 after 16 to 18 hrs in presence of PAbetaN by broth microdilution method; assay type: functional
Staphylococcus aureus = assay: Antibacterial activity against Staphylococcus aureus subsp. aureus clinical isolate after 16 to 18 hrs by broth microdilution method; assay type: functional
Enterococcus faecium = assay: Antibacterial activity against Enterococcus faecium after 16 to 18 hrs by broth microdilution method; assay type: functional
[5] = test system: Staphylococcus epidermidis; assay: Antibacterial activity against Staphylococcus epidermidis clinical isolate after 16 to 18 hrs by broth microdilution method; assay type: functional
Bacillus subtilis = assay: Antibacterial activity against Bacillus subtilis after 16 to 18 hrs by broth microdilution method; assay type: functional
Escherichia coli [6] = assay: Antibacterial activity against gyramide-resistant Escherichia coli JW5503 harboring GyrB Thr508Met mutant after 16 to 18 hrs by broth microdilution method; assay type: functional
Escherichia coli [7] = assay: Antibacterial activity against Escherichia coli BW25113 after 16 to 18 hrs by broth microdilution method; assay type: functional
Escherichia coli [8] = assay: Ratio of MIC for gyramide-resistant Escherichia coli JW5503 harboring GyrA Phe96Leu mutant to MIC for Escherichia coli JW5503; assay type: functional
Acinetobacter baumannii = assay: Antibacterial activity against Acinetobacter baumannii clinical isolate after 16 to 18 hrs by broth microdilution method; assay type: functional
Edwardsiella tarda = assay: Antibacterial activity against Edwardsiella tarda clinical isolate after 16 to 18 hrs by broth microdilution method; assay type: functional
Klebsiella aerogenes = assay: Antibacterial activity against Enterobacter aerogenes clinical isolate after 16 to 18 hrs by broth microdilution method; assay type: functional
[9] = biological target: DNA gyrase (Escherichia coli) (UniProt P0AES6+P0AES4); assay: Inhibition of Escherichia coli DNA gyrase ATPase activity up to 100 uM using DNA as substrate after 60 mins; assay type: protein-complex assay
Salmonella typhimurium = assay: Antibacterial activity against Salmonella enterica subsp. enterica serovar Typhimurium after 16 to 18 hrs by broth microdilution method; assay type: functional
Streptococcus pyogenes = assay: Antibacterial activity against Streptococcus pyogenes after 16 to 18 hrs by broth microdilution method; assay type: functional
Enterococcus faecalis = assay: Antibacterial activity against Enterococcus faecalis after 16 to 18 hrs by broth microdilution method; assay type: functional
Escherichia coli [10] = assay: Ratio of MIC for novobiocin-resistant Escherichia coli CC5 harboring GyrB Arg136His mutant to MIC for Escherichia coli HB101; assay type: functional
Escherichia coli [11] = assay: Ratio of MIC for ciprofloxacin-resistant Escherichia coli JW5503 harboring GyrA Asp87Tyr mutant to MIC for Escherichia coli JW5503; assay type: functional
Escherichia coli [12] = assay: Antibacterial activity against novobiocin-resistant Escherichia coli LE316 harboring GyrB Arg136Val mutant after 16 to 18 hrs in presence of PAbetaN by broth microdilution method; assay type: functional
Escherichia coli [13] = assay: Antibacterial activity against ciprofloxacin-resistant Escherichia coli JW5503 harboring GyrA Asp87Tyr mutant after 16 to 18 hrs by broth microdilution method; assay type: functional
Escherichia coli [14] = assay: Ratio of MIC for ciprofloxacin-resistant Escherichia coli JW5503 harboring GyrB Ser464Phe mutant to MIC for Escherichia coli JW5503; assay type: functional
Escherichia coli [15] = assay: Ratio of MIC for novobiocin-resistant Escherichia coli LE316 harboring GyrB Arg136Val mutant to MIC for Escherichia coli HB101; assay type: functional
Pseudomonas aeruginosa = assay: Antibacterial activity against Pseudomonas aeruginosa after 16 to 18 hrs by broth microdilution method; assay type: functional
Streptococcus agalactiae = assay: Antibacterial activity against Streptococcus agalactiae after 16 to 18 hrs by broth microdilution method; assay type: functional
Escherichia coli [16] = assay: Antibacterial activity against gyramide-resistant Escherichia coli JW5503 harboring GyrA Phe96Leu mutant after 16 to 18 hrs by broth microdilution method; assay type: functional
Escherichia coli [17] = assay: Ratio of MIC for gyramide-resistant Escherichia coli JW5503 harboring GyrB Ser464Phe mutant to MIC for Escherichia coli JW5503; assay type: functional
Escherichia coli [18] = assay: Antibacterial activity against gyramide-resistant Escherichia coli JW5503 harboring GyrA Pro35Thr mutant after 16 to 18 hrs by broth microdilution method; assay type: functional
Escherichia coli [19] = assay: Ratio of MIC for ciprofloxacin-resistant Escherichia coli JW5503 harboring GyrA Asp87Gly mutant to MIC for Escherichia coli JW5503; assay type: functional
[20] = Ratio of MIC for Escherichia coli BW25113 to MIC for Escherichia coli JW5503; assay type: functional
Escherichia coli [21] = assay: Ratio of MIC for novobiocin-resistant Escherichia coli CC7 harboring GyrB Arg136Ser mutant to MIC for Escherichia coli HB101; assay type: functional
Klebsiella pneumoniae = assay: Antibacterial activity against Klebsiella pneumoniae after 16 to 18 hrs by broth microdilution method; assay type: functional
Escherichia coli [22] = assay: Ratio of MIC for gyramide-resistant Escherichia coli JW5503 harboring GyrA Pro35Thr mutant to MIC for Escherichia coli JW5503; assay type: functional
[23] = test system: Staphylococcus saprophyticus; assay: Antibacterial activity against Staphylococcus saprophyticus clinical isolate after 16 to 18 hrs by broth microdilution method; assay type: functional
Escherichia coli [24] = assay: Antibacterial activity against Escherichia coli BAS849 after 16 to 18 hrs by broth microdilution method; assay type: functional
Escherichia coli [25] = assay: Antibacterial activity against gyramide-resistant Escherichia coli JW5503 harboring GyrA Ser97Pro mutant after 16 to 18 hrs by broth microdilution method; assay type: functional
Escherichia coli [26] = assay: Antibacterial activity against gyramide-resistant Escherichia coli JW5503 harboring GyrA His45Tyr mutant after 16 to 18 hrs by broth microdilution method; assay type: functional
Escherichia coli [27] = assay: Antibacterial activity against ciprofloxacin-resistant Escherichia coli JW5503 harboring GyrB Ser464Phe mutant after 16 to 18 hrs by broth microdilution method; assay type: functional
Escherichia coli [28] = assay: Ratio of MIC for ciprofloxacin-resistant Escherichia coli JW5503 harboring GyrA Ser83Leu mutant to MIC for Escherichia coli JW5503; assay type: functional
Escherichia coli [29] = assay: Antibacterial activity against Escherichia coli MC4100 after 16 to 18 hrs by broth microdilution method; assay type: functional
Escherichia coli [30] = assay: Antibacterial activity against ciprofloxacin-resistant Escherichia coli JW5503 harboring GyrA Asp87Gly mutant after 16 to 18 hrs by broth microdilution method; assay type: functional
Morganella morganii = assay: Antibacterial activity against Morganella morganii clinical isolate after 16 to 18 hrs by broth microdilution method; assay type: functional
Escherichia coli [31] = assay: Ratio of MIC for gyramide-resistant Escherichia coli JW5503 harboring GyrA His45Tyr mutant to MIC for Escherichia coli JW5503; assay type: functional
Escherichia coli [32] = assay: Antibacterial activity against Escherichia coli UPEC after 16 to 18 hrs by broth microdilution method; assay type: functional

SMILES: Cc1ccc(C(F)(F)F)cc1S(=O)(=O)N[C@@H]1CCN(Cc2ccc(OC3CC3)cc2)C1
- MIC (Escherichia coli [1]): 0.4 µg/mL (≈ 0.88 µM)
- MIC (Bacillus cereus): 8 µg/mL (≈ 17.6 µM)
- MIC (Escherichia coli [2]): 4 µg/mL (≈ 8.8 µM)
- MIC (Shigella flexneri): 4 µg/mL (≈ 8.8 µM)
- IC50 (DNA gyrase): 170 nM
- Ratio (Escherichia coli [3]): 10 - 100
- MIC (Escherichia coli [4]): 0.1 µg/mL
- MIC (Staphylococcus aureus): 8 µg/mL (≈ 17.6 µM)
- MIC (Enterococcus faecium): 8 µg/mL (≈ 17.6 µM)
- MIC [5]: 8 µg/mL (≈ 17.6 µM)
- MIC (Bacillus subtilis): 8 µg/mL (≈ 17.6 µM)
- MIC (Escherichia coli [6]): 5.5 µg/mL (≈ 12.1 µM)
- MIC (Escherichia coli [7]): 8 µg/mL (≈ 17.6 µM)
- Ratio (Escherichia coli [8]): 10 - 100
- MIC (Acinetobacter baumannii): > 16 µg/mL
- MIC (Edwardsiella tarda): 8 µg/mL (≈ 17.6 µM)
- MIC (Klebsiella aerogenes): > 16 µg/mL
- inhibition [9]: inactive
- MIC (Salmonella typhimurium): 4 µg/mL (≈ 8.8 µM)
- MIC (Streptococcus pyogenes): 4 µg/mL (≈ 8.8 µM)
- MIC (Enterococcus faecalis): 16 µg/mL (≈ 35.2 µM)
- Ratio (Escherichia coli [10]): 2 - 4
- Ratio (Escherichia coli [11]): 2 - 4
- MIC (Escherichia coli [12]): 0.2 µg/mL
- MIC (Escherichia coli [13]): 0.2 µg/mL (≈ 0.44 µM)
- Ratio (Escherichia coli [14]): 2 - 4
- Ratio (Escherichia coli [15]): 2 - 4
- MIC (Pseudomonas aeruginosa): > 16 µg/mL
- MIC (Streptococcus agalactiae): 8 µg/mL (≈ 17.6 µM)
- MIC (Escherichia coli [16]): 11 µg/mL (≈ 24.2 µM)
- Ratio (Escherichia coli [17]): 10 - 100
- MIC (Escherichia coli [18]): 11 µg/mL (≈ 24.2 µM)
- Ratio (Escherichia coli [19]): 2 - 4
- Ratio [20]: 20
- Ratio (Escherichia coli [21]): 2 - 4
- MIC (Klebsiella pneumoniae): > 16 µg/mL
- Ratio (Escherichia coli [22]): 10 - 100
- MIC [23]: 8 µg/mL (≈ 17.6 µM)
- MIC (Escherichia coli [24]): 1 µg/mL (≈ 2.2 µM)
- MIC (Escherichia coli [25]): 22 µg/mL (≈ 48.4 µM)
- MIC (Escherichia coli [26]): 22 µg/mL (≈ 48.4 µM)
- MIC (Escherichia coli [27]): 1.6 µg/mL (≈ 3.52 µM)
- Ratio (Escherichia coli [28]): 2 - 4
- MIC (Escherichia coli [29]): 16 µg/mL (≈ 35.2 µM)
- MIC (Escherichia coli [30]): 0.8 µg/mL (≈ 1.76 µM)
- MIC (Morganella morganii): > 16 µg/mL
- Ratio (Escherichia coli [31]): 10 - 100
- MIC (Escherichia coli [32]): > 16 µg/mL
